Laboratory results: PubChem BioAssay (NCI)
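Interpolation was linear, between the two tested concentrations surrounding the appropriate level; five concentrations were tested over 48 hours in 96-well plates. At the GI50, growth is halved. TGI is the concentration that stops growth completely.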

Columns and labels:
Experiment in all cases: NCI tumour cell line growth inhibition, 48 h
786-0 renal = test system: 786-0 renal
A498 renal = test system: A498 renal
A549 NSCLC = test system: A549 NSCLC
ACHN renal = test system: ACHN renal
BT-549 breast = test system: BT-549 breast
CAKI-1 renal = test system: CAKI-1 renal
CCRF-CEM leukemia = test system: CCRF-CEM leukemia
COLO 205 colon = test system: COLO 205 colon
DU-145 prostate = test system: DU-145 prostate
EKVX NSCLC = test system: EKVX NSCLC
HCC-2998 colon = test system: HCC-2998 colon
HCT-116 colon = test system: HCT-116 colon
HCT-15 colon = test system: HCT-15 colon
HL-60(TB) leukemia = test system: HL-60(TB) leukemia
HOP-62 NSCLC = test system: HOP-62 NSCLC
HOP-92 NSCLC = test system: HOP-92 NSCLC
HS 578T breast = test system: HS 578T breast
HT29 colon = test system: HT29 colon
IGROV1 ovarian = test system: IGROV1 ovarian
K-562 leukemia = test system: K-562 leukemia
KM12 colon = test system: KM12 colon
LOX IMVI melanoma = test system: LOX IMVI melanoma
M14 melanoma = test system: M14 melanoma
MALME-3M melanoma = test system: MALME-3M melanoma
MCF7 breast = test system: MCF7 breast
MDA-MB-231 breast = test system: MDA-MB-231 breast
MDA-MB-435 = test system: MDA-MB-435
MOLT-4 leukemia = test system: MOLT-4 leukemia
NCI-H226 lung = test system: NCI-H226 lung
NCI-H23 lung = test system: NCI-H23 lung
NCI-H460 lung = test system: NCI-H460 lung
NCI-H522 lung = test system: NCI-H522 lung
NCI/ADR-RES ovarian = test system: NCI/ADR-RES ovarian
OVCAR-3 ovarian = test system: OVCAR-3 ovarian
OVCAR-4 ovarian = test system: OVCAR-4 ovarian
OVCAR-5 ovarian = test system: OVCAR-5 ovarian
OVCAR-8 ovarian = test system: OVCAR-8 ovarian
PC-3 prostate = test system: PC-3 prostate
RPMI-8226 leukemia = test system: RPMI-8226 leukemia
RXF 393 renal = test system: RXF 393 renal
SF-268 CNS = test system: SF-268 CNS
SF-295 CNS = test system: SF-295 CNS
SF-539 CNS = test system: SF-539 CNS
SK-MEL-2 melanoma = test system: SK-MEL-2 melanoma
SK-MEL-28 melanoma = test system: SK-MEL-28 melanoma
SK-MEL-5 melanoma = test system: SK-MEL-5 melanoma
SK-OV-3 ovarian = test system: SK-OV-3 ovarian
SN12C renal = test system: SN12C renal
SNB-19 CNS = test system: SNB-19 CNS
SNB-75 CNS = test system: SNB-75 CNS
SR leukemia = test system: SR leukemia
SW-620 colon = test system: SW-620 colon
T-47D breast = test system: T-47D breast
TK-10 renal = test system: TK-10 renal
U251 CNS = test system: U251 CNS
UACC-257 melanoma = test system: UACC-257 melanoma
UACC-62 melanoma = test system: UACC-62 melanoma
UO-31 renal = test system: UO-31 renal

COc1cccc(/C=C2\COc3ccc(O)c(O)c3C2=O)c1
GI50 (786-0 renal): 1470 nM | TGI (786-0 renal): 3860 nM | GI50 (A498 renal): 1710 nM | TGI (A498 renal): 4000 nM | GI50 (A549 NSCLC): 2410 nM | TGI (A549 NSCLC): 10300 nM | GI50 (ACHN renal): 1250 nM | TGI (ACHN renal): 2610 nM | GI50 (BT-549 breast): 1970 nM | TGI (BT-549 breast): 5080 nM | GI50 (CAKI-1 renal): 1280 nM | TGI (CAKI-1 renal): 2710 nM | GI50 (CCRF-CEM leukemia): 263 nM | TGI (CCRF-CEM leukemia): 1110 nM | GI50 (COLO 205 colon): 1960 nM | TGI (COLO 205 colon): 3870 nM | GI50 (DU-145 prostate): 1680 nM | TGI (DU-145 prostate): 4160 nM | GI50 (EKVX NSCLC): 1820 nM | TGI (EKVX NSCLC): 3950 nM | GI50 (HCC-2998 colon): 1600 nM | TGI (HCC-2998 colon): 3030 nM | GI50 (HCT-116 colon): 1250 nM | TGI (HCT-116 colon): 2900 nM | GI50 (HCT-15 colon): 469 nM | TGI (HCT-15 colon): 4910 nM | GI50 (HL-60(TB) leukemia): 405 nM | TGI (HL-60(TB) leukemia): 3200 nM | GI50 (HOP-62 NSCLC): 2800 nM | TGI (HOP-62 NSCLC): 10400 nM | GI50 (HOP-92 NSCLC): 2110 nM | TGI (HOP-92 NSCLC): 8010 nM | GI50 (HS 578T breast): 2900 nM | TGI (HS 578T breast): 21800 nM | GI50 (HT29 colon): 2260 nM | TGI (HT29 colon): 5070 nM | GI50 (IGROV1 ovarian): 781 nM | TGI (IGROV1 ovarian): 3630 nM | GI50 (K-562 leukemia): 396 nM | TGI (K-562 leukemia): > 100000 nM | GI50 (KM12 colon): 1440 nM | TGI (KM12 colon): 3250 nM | GI50 (LOX IMVI melanoma): 740 nM | TGI (LOX IMVI melanoma): 2060 nM | GI50 (M14 melanoma): 1880 nM | TGI (M14 melanoma): 4760 nM | GI50 (MALME-3M melanoma): 1450 nM | TGI (MALME-3M melanoma): 3710 nM | GI50 (MCF7 breast): 438 nM | TGI (MCF7 breast): 3120 nM | GI50 (MDA-MB-231 breast): 1690 nM | TGI (MDA-MB-231 breast): 6500 nM | GI50 (MDA-MB-435): 1460 nM | TGI (MDA-MB-435): 4120 nM | GI50 (MOLT-4 leukemia): 1640 nM | TGI (MOLT-4 leukemia): 17700 nM | GI50 (NCI-H226 lung): 2030 nM | TGI (NCI-H226 lung): 5380 nM | GI50 (NCI-H23 lung): 1580 nM | TGI (NCI-H23 lung): 3340 nM | GI50 (NCI-H460 lung): 2440 nM | TGI (NCI-H460 lung): 8190 nM | GI50 (NCI-H522 lung): 193 nM | TGI (NCI-H522 lung): 448 nM | GI50 (NCI/ADR-RES ovarian): 1640 nM | TGI (NCI/ADR-RES ovarian): 5950 nM | GI50 (OVCAR-3 ovarian): 629 nM | TGI (OVCAR-3 ovarian): 1930 nM | GI50 (OVCAR-4 ovarian): 2180 nM | TGI (OVCAR-4 ovarian): 9470 nM | GI50 (OVCAR-5 ovarian): 2180 nM | TGI (OVCAR-5 ovarian): 4690 nM | GI50 (OVCAR-8 ovarian): 1790 nM | TGI (OVCAR-8 ovarian): 13200 nM | GI50 (PC-3 prostate): 770 nM | TGI (PC-3 prostate): 6040 nM | GI50 (RPMI-8226 leukemia): 223 nM | TGI (RPMI-8226 leukemia): 626 nM | GI50 (RXF 393 renal): 1190 nM | TGI (RXF 393 renal): 2480 nM | GI50 (SF-268 CNS): 1820 nM | TGI (SF-268 CNS): 5170 nM | GI50 (SF-295 CNS): 3200 nM | TGI (SF-295 CNS): 10200 nM | GI50 (SF-539 CNS): 1180 nM | TGI (SF-539 CNS): 3060 nM | GI50 (SK-MEL-2 melanoma): 2160 nM | TGI (SK-MEL-2 melanoma): 5150 nM | GI50 (SK-MEL-28 melanoma): 1780 nM | TGI (SK-MEL-28 melanoma): 4130 nM | GI50 (SK-MEL-5 melanoma): 1440 nM | TGI (SK-MEL-5 melanoma): 2760 nM | GI50 (SK-OV-3 ovarian): 3380 nM | TGI (SK-OV-3 ovarian): 12700 nM | GI50 (SN12C renal): 1090 nM | TGI (SN12C renal): 3620 nM | GI50 (SNB-19 CNS): 1840 nM | TGI (SNB-19 CNS): 5070 nM | GI50 (SNB-75 CNS): 1420 nM | TGI (SNB-75 CNS): 10300 nM | GI50 (SR leukemia): 359 nM | TGI (SR leukemia): 6970 nM | GI50 (SW-620 colon): 1160 nM | TGI (SW-620 colon): 3850 nM | GI50 (T-47D breast): 1580 nM | TGI (T-47D breast): 4380 nM | GI50 (TK-10 renal): 1740 nM | TGI (TK-10 renal): 3490 nM | GI50 (U251 CNS): 1150 nM | TGI (U251 CNS): 2490 nM | GI50 (UACC-257 melanoma): 1730 nM | TGI (UACC-257 melanoma): 4770 nM | GI50 (UACC-62 melanoma): 1530 nM | TGI (UACC-62 melanoma): 3220 nM | GI50 (UO-31 renal): 853 nM | TGI (UO-31 renal): 2090 nM
